Measured values from ChEMBL document CHEMBL1201862, “PubChem BioAssay data set” (2004).
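Assay format: 96-well plates, 48-hour exposure. GI50: concentration for 50% inhibition of growth.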 Activity calls are given as the source filed them. No stated cut-off is given here; in the data, active = GI50 up to about 1.1 µM and inactive = higher.

Key:
Assay in all cases: growth of human tumour cells (NCI), 48 h
DU-145 = test system: DU-145
HT-29 = test system: HT-29
OVCAR-5 = test system: OVCAR-5
A498 = test system: A498
SF-268 = test system: SF-268
COLO 205 = test system: COLO 205
SNB-75 = test system: SNB-75
KM12 = test system: KM12
SK-MEL-5 = test system: SK-MEL-5
MCF7 = test system: MCF7
MDA-MB-435 = test system: MDA-MB-435
K562 = test system: K562
NCI-H23 = test system: NCI-H23
NCI/ADR-RES = test system: NCI/ADR-RES
CAKI-1 = test system: CAKI-1
SW-620 = test system: SW-620
U-251 = test system: U-251
NCI-H522 = test system: NCI-H522
M14 = test system: M14
Malme-3M = test system: Malme-3M
TK-10 = test system: TK-10
UACC-62 = test system: UACC-62
EKVX = test system: EKVX
HCC 2998 = test system: HCC 2998
SK-OV-3 = test system: SK-OV-3
A549 = test system: A549
SN12C = test system: SN12C
RPMI-8226 = test system: RPMI-8226
MDA-MB-231 = test system: MDA-MB-231
NCI-H460 = test system: NCI-H460
SK-MEL-28 = test system: SK-MEL-28
HCT-15 = test system: HCT-15
SNB-19 = test system: SNB-19
OVCAR-3 = test system: OVCAR-3
786-0 = test system: 786-0
ACHN = test system: ACHN
SF-295 = test system: SF-295
BT-549 = test system: BT-549
HOP-92 = test system: HOP-92
UO-31 = test system: UO-31
UACC-257 = test system: UACC-257
HCT-116 = test system: HCT-116
MDA-N = test system: MDA-N
OVCAR-4 = test system: OVCAR-4
SK-MEL-2 = test system: SK-MEL-2
PC-3 = test system: PC-3
MOLT-4 = test system: MOLT-4
NCI-H226 = test system: NCI-H226
RXF 393 = test system: RXF 393
SF-539 = test system: SF-539
T47D = test system: T47D
CCRF-CEM = test system: CCRF-CEM
OVCAR-8 = test system: OVCAR-8
IGROV-1 = test system: IGROV-1
SR = test system: SR
HOP-62 = test system: HOP-62
HL-60 = test system: HL-60
LOX IMVI = test system: LOX IMVI

Clc1ccc(OCc2nnc(CCCCCCCCc3nnc(COc4ccc(Cl)cc4)o3)o2)cc1
GI50 (DU-145): 68.7 µM (inactive)
GI50 (HT-29): > 100 µM (inactive)
GI50 (OVCAR-5): > 100 µM (inactive)
GI50 (A498): > 100 µM (inactive)
GI50 (SF-268): 32.3 µM (inactive)
GI50 (COLO 205): > 100 µM (inactive)
GI50 (SNB-75): 68.2 µM (inactive)
GI50 (KM12): > 100 µM (inactive)
GI50 (SK-MEL-5): > 100 µM (inactive)
GI50 (MCF7): 28.2 µM (inactive)
GI50 (MDA-MB-435): > 100 µM (inactive)
GI50 (K562): 48.1 µM (inactive)
GI50 (NCI-H23): 79.3 µM (inactive)
GI50 (NCI/ADR-RES): > 100 µM (inactive)
GI50 (CAKI-1): 39.7 µM (inactive)
GI50 (SW-620): > 100 µM (inactive)
GI50 (U-251): 29.4 µM (inactive)
GI50 (NCI-H522): 31.8 µM (inactive)
GI50 (M14): 89.7 µM (inactive)
GI50 (Malme-3M): 3.58 µM (inactive)
GI50 (TK-10): > 100 µM (inactive)
GI50 (UACC-62): > 100 µM (inactive)
GI50 (EKVX): > 100 µM (inactive)
GI50 (HCC 2998): > 100 µM (inactive)
GI50 (SK-OV-3): 57.8 µM (inactive)
GI50 (A549): 72.1 µM (inactive)
GI50 (SN12C): 43.8 µM (inactive)
GI50 (RPMI-8226): > 100 µM (inactive)
GI50 (MDA-MB-231): 48 µM (inactive)
GI50 (NCI-H460): > 100 µM (inactive)
GI50 (SK-MEL-28): > 100 µM (inactive)
GI50 (HCT-15): > 100 µM
GI50 (SNB-19): 34.1 µM (inactive)
GI50 (OVCAR-3): > 100 µM (inactive)
GI50 (786-0): 31.8 µM (inactive)
GI50 (ACHN): > 100 µM (inactive)
GI50 (SF-295): > 100 µM (inactive)
GI50 (BT-549): > 100 µM (inactive)
GI50 (HOP-92): 31.7 µM (inactive)
GI50 (UO-31): > 100 µM (inactive)
GI50 (UACC-257): > 100 µM (inactive)
GI50 (HCT-116): 10.5 µM (inactive)
GI50 (MDA-N): > 100 µM (inactive)
GI50 (OVCAR-4): > 100 µM (inactive)
GI50 (SK-MEL-2): > 100 µM (inactive)
GI50 (PC-3): > 100 µM (inactive)
GI50 (MOLT-4): 14.8 µM (inactive)
GI50 (NCI-H226): > 100 µM (inactive)
GI50 (RXF 393): 47.3 µM (inactive)

C[Si](C)(C)CNC(=O)OCc1ccccc1
GI50 (DU-145): > 100 µM (inactive)
GI50 (HT-29): 48 µM (inactive)
GI50 (OVCAR-5): > 100 µM (inactive)
GI50 (A498): > 100 µM (inactive)
GI50 (SF-268): > 100 µM (inactive)
GI50 (COLO 205): > 100 µM (inactive)
GI50 (SNB-75): 90.4 µM (inactive)
GI50 (KM12): > 100 µM (inactive)
GI50 (SK-MEL-5): 57.7 µM (inactive)
GI50 (MCF7): > 100 µM (inactive)
GI50 (MDA-MB-435): > 100 µM (inactive)
GI50 (SF-539): > 100 µM (inactive)
GI50 (K562): 48.9 µM (inactive)
GI50 (NCI-H23): 76 µM (inactive)
GI50 (T47D): 19.1 µM (inactive)
GI50 (NCI/ADR-RES): 75 µM (inactive)
GI50 (CAKI-1): > 100 µM (inactive)
GI50 (SW-620): > 100 µM (inactive)
GI50 (U-251): > 100 µM (inactive)
GI50 (NCI-H522): 83.2 µM (inactive)
GI50 (M14): > 100 µM (inactive)
GI50 (TK-10): > 100 µM (inactive)
GI50 (UACC-62): > 100 µM (inactive)
GI50 (EKVX): 76.7 µM (inactive)
GI50 (HCC 2998): > 100 µM (inactive)
GI50 (SK-OV-3): 0.962 µM (active)
GI50 (A549): > 100 µM (inactive)
GI50 (SN12C): > 100 µM (inactive)
GI50 (CCRF-CEM): > 100 µM (inactive)
GI50 (RPMI-8226): 32.2 µM (inactive)
GI50 (MDA-MB-231): > 100 µM (inactive)
GI50 (NCI-H460): > 100 µM (inactive)
GI50 (SK-MEL-28): > 100 µM (inactive)
GI50 (HCT-15): > 100 µM
GI50 (SNB-19): > 100 µM (inactive)
GI50 (OVCAR-3): > 100 µM (inactive)
GI50 (OVCAR-8): > 100 µM (inactive)
GI50 (786-0): > 100 µM (inactive)
GI50 (ACHN): > 100 µM (inactive)
GI50 (IGROV-1): > 100 µM (inactive)
GI50 (SF-295): > 100 µM (inactive)
GI50 (SR): 30.6 µM (inactive)
GI50 (HOP-62): 58.1 µM (inactive)
GI50 (BT-549): 98.9 µM (inactive)
GI50 (HL-60): 57.4 µM (inactive)
GI50 (HOP-92): 22.1 µM (inactive)
GI50 (UO-31): > 100 µM (inactive)
GI50 (UACC-257): > 100 µM (inactive)
GI50 (HCT-116): > 100 µM (inactive)
GI50 (MDA-N): > 100 µM (inactive)
GI50 (OVCAR-4): 87.1 µM (inactive)
GI50 (SK-MEL-2): > 100 µM (inactive)
GI50 (PC-3): > 100 µM (inactive)
GI50 (NCI-H226): 66.4 µM (inactive)
GI50 (LOX IMVI): > 100 µM (inactive)
